Among the test systems are HS 578T breast; T-47D breast; MDA-MB-435; MCF7 breast; NCI/ADR-RES ovarian; DU-145 prostate.
Test in all cases: NCI anticancer screen, dose series, 48 h

For 13 compounds, GI50 and TGI results are on record in PubChem BioAssay (NCI).

Where “and” joins values, the source holds several entries; their conditions need not be identical. Equal values may be shown once.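 Cultured in 96-well plates, cells were exposed to test compound for 48 hours across five concentrations. GI50 = concentration required for 50% inhibition of growth. The concentration for full growth arrest is given as TGI.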

`CC(C)Oc1ccc(C(=O)Cn2ccnc2)cc1-n1c(CN2CCN(C(=O)COc3ccc(Cl)cc3)CC2)nc2ccccc2c1=O`: the GI50 in the experiment with HS 578T breast was 15.8 µM; with T-47D breast, 14.3 µM; with MDA-MB-435, 15.6 µM; in the experiment with MCF7 breast, 12 µM; with NCI/ADR-RES ovarian, greater than 100 µM; in the experiment on DU-145 prostate it was 9.59 µM. The TGI with HS 578T breast is 46.6 µM; in the experiment on T-47D breast, greater than 95.4 µM; in the experiment with MDA-MB-435, 33.6 µM; in the experiment on MCF7 breast, 35.5 µM; in the experiment with NCI/ADR-RES ovarian, greater than 100 µM; in the experiment with DU-145 prostate, greater than 100 µM.
In the case of `COc1ccc(C2=C(N3CCc4ccccc43)C(=O)NC2=O)cc1`, the GI50 in the experiment with HS 578T breast was greater than 20.9 µM; in the experiment with T-47D breast it was greater than 17.8 µM; in the experiment on MDA-MB-435, greater than 25 µM; in the experiment on MCF7 breast, greater than 25 µM; in the experiment on NCI/ADR-RES ovarian, greater than 25 µM; in the experiment with DU-145 prostate, greater than 25 µM. Also, the TGI in the experiment with HS 578T breast, with T-47D breast, in the experiment on MDA-MB-435, in the experiment with MCF7 breast, in the experiment on NCI/ADR-RES ovarian and in the experiment on DU-145 prostate was greater than 25 µM each time.
Consider `c1cnn2ncc(-c3ccnc(Nc4ccc5c(c4)OCCO5)n3)c2c1`, for which the GI50 in the experiment with HS 578T breast was 0.0747 µM; in the experiment with T-47D breast it was 0.084 µM; in the experiment with MDA-MB-435, 0.0813 µM; in the experiment on MCF7 breast, 0.0797 µM; in the experiment on NCI/ADR-RES ovarian, 0.0781 µM; in the experiment on DU-145 prostate, 0.0844 µM. The TGI in the experiment with HS 578T breast is 0.323 µM; in the experiment on T-47D breast it was 0.495 µM; in the experiment with MDA-MB-435 it was 0.516 µM; in the experiment with MCF7 breast it was greater than 25 µM; with NCI/ADR-RES ovarian, 1.65 µM; with DU-145 prostate it was 1.45 µM.
On to `CCN(CC)c1ccc(/C=C/C2=[N+](C)c3ccccc3C2(C)C)c(C)c1`, for which the GI50 in the experiment on HS 578T breast is 0.129 µM; in the experiment with T-47D breast, less than 0.0272 µM; in the experiment on MDA-MB-435, 0.0653 µM; with MCF7 breast it was 0.0574 µM; in the experiment on NCI/ADR-RES ovarian, 2.24 µM; in the experiment on DU-145 prostate, 0.0985 µM. For the same compound, the TGI with HS 578T breast was 16.5 µM; with T-47D breast, 1.61 µM; with MDA-MB-435, 1.32 µM; in the experiment on MCF7 breast, 1.62 µM; with NCI/ADR-RES ovarian it was 13 µM; with DU-145 prostate, 11.6 µM.
Take `O=C1c2ccccc2-c2c1c1ccccc1c(=O)n2CCNCCn1c2c(c3ccccc3c1=O)C(=O)c1ccccc1-2`: the GI50 in the experiment on HS 578T breast, in the experiment with MDA-MB-435, in the experiment on MCF7 breast, in the experiment on NCI/ADR-RES ovarian and in the experiment on DU-145 prostate was greater than 25 µM in each case. In addition, the TGI with HS 578T breast, with MDA-MB-435, in the experiment with MCF7 breast, in the experiment with NCI/ADR-RES ovarian and with DU-145 prostate was greater than 25 µM in each case.
Turning to `Cc1cc(C)n(C2=NS(=O)(=O)c3ccccc3N2C)n1`, the TGI in the experiment with HS 578T breast, in the experiment on T-47D breast, in the experiment with MDA-MB-435, with MCF7 breast, with NCI/ADR-RES ovarian and in the experiment with DU-145 prostate was greater than 100 µM each time.
As to `O=C(NCCN1CCNCC1)c1ccc(Nc2nc3ccccc3c3occc23)cc1`, the GI50 was 14.3 µM in the experiment on HS 578T breast; 5.71 µM in the experiment on T-47D breast; 3.1 µM in the experiment with MDA-MB-435; 30.2 µM with MCF7 breast; 21 µM in the experiment with NCI/ADR-RES ovarian; 3.44 µM in the experiment with DU-145 prostate. The TGI with HS 578T breast is 38.4 µM; with T-47D breast it was 35.4 µM; in the experiment on MDA-MB-435, 8.51 µM; in the experiment with MCF7 breast, greater than 100 µM; with NCI/ADR-RES ovarian, 46.5 µM; in the experiment on DU-145 prostate, 12.5 µM.
On to `Cc1cccc(N=Nc2ccc(N=Nc3c(O)ccc4ccccc34)cc2C)c1`, for which the TGI was greater than 100 µM in the experiment with HS 578T breast, greater than 100 µM in the experiment with MDA-MB-435, greater than 100 µM in the experiment on MCF7 breast and 50.7 µM in the experiment on NCI/ADR-RES ovarian.
Turning to `OCc1ccc(N2CCOCC2)cc1Cl`, the GI50 in the experiment with HS 578T breast is greater than 100 µM; in the experiment with T-47D breast it was 14.7 µM; in the experiment with MDA-MB-435, greater than 100 µM; with MCF7 breast, 15.8 µM; in the experiment on NCI/ADR-RES ovarian, greater than 100 µM; in the experiment on DU-145 prostate, greater than 100 µM. The TGI was greater than 100 µM in the experiment on HS 578T breast; greater than 84.1 µM with T-47D breast; greater than 100 µM in the experiment with MDA-MB-435; greater than 100 µM in the experiment on MCF7 breast; greater than 100 µM in the experiment with NCI/ADR-RES ovarian; greater than 100 µM with DU-145 prostate.
In the case of `COc1ccc(F)c(F)c1C(=O)c1cnc(NC2CCN(S(C)(=O)=O)CC2)nc1N`, the GI50 was 1.52 µM and 0.695 µM with HS 578T breast; 1.04 µM and 0.678 µM with T-47D breast; 0.419 µM and 0.309 µM with MDA-MB-435; 0.0674 µM and 0.0458 µM in the experiment with MCF7 breast; 2.63 µM and 1.65 µM with NCI/ADR-RES ovarian; 1.7 µM and 0.623 µM in the experiment with DU-145 prostate. Also, the TGI in the experiment with HS 578T breast was 6.12 µM and > 8.4 µM; in the experiment with T-47D breast it was 11.8 µM and > 8.01 µM; with MDA-MB-435, 3.72 µM and > 4.89 µM; with MCF7 breast, greater than 100 µM; in the experiment with NCI/ADR-RES ovarian, greater than 100 µM; in the experiment on DU-145 prostate, greater than 71.2 µM.
Consider `CC1c2ccccc2N=C2SC(=S)N3CCN=C3N21` (stereo unspecified), for which the GI50 in the experiment on T-47D breast, in the experiment with MDA-MB-435, in the experiment on MCF7 breast, with NCI/ADR-RES ovarian and in the experiment with DU-145 prostate was greater than 100 µM in each case. Moreover, the TGI in the experiment on T-47D breast, with MDA-MB-435, with MCF7 breast, in the experiment on NCI/ADR-RES ovarian and in the experiment on DU-145 prostate was greater than 100 µM each time.
Regarding `O=[N+]([O-])c1ccc(-c2cc3c(Nc4ccc(Cl)c(C(F)(F)F)c4)ncnc3s2)cc1`, the GI50 is 0.407 µM with T-47D breast; 2.24 µM with MDA-MB-435; 0.982 µM with MCF7 breast; 1.36 µM with NCI/ADR-RES ovarian; 1.63 µM in the experiment on DU-145 prostate. Besides, the TGI in the experiment with T-47D breast was 6.1 µM; in the experiment with MDA-MB-435 it was greater than 100 µM; with MCF7 breast, greater than 100 µM; in the experiment on NCI/ADR-RES ovarian, greater than 100 µM; in the experiment on DU-145 prostate, greater than 100 µM.
For `[2H]c1nc(=Nc2cc(NC(=O)C=C)c(N(C)CCN(C)C)cc2OC)[nH]c(-c2cn(C([2H])([2H])[2H])c3ccccc23)c1[2H]`, the GI50 in the experiment on HS 578T breast was 2.59 µM; in the experiment with T-47D breast it was 1.07 µM; in the experiment on MDA-MB-435, 1.62 µM; in the experiment with MCF7 breast it was 1.39 µM; in the experiment with NCI/ADR-RES ovarian it was 1.39 µM; with DU-145 prostate, 1.51 µM. For the same compound, the TGI was 9.74 µM with HS 578T breast; 2.83 µM in the experiment with T-47D breast; 3.09 µM with MDA-MB-435; 3.23 µM in the experiment on MCF7 breast; 5.02 µM with NCI/ADR-RES ovarian; 11.8 µM in the experiment on DU-145 prostate.
